Common to all, as to assay type: in vivo, SD rats
The subject of experiment [1] is rat model of chronic cystitis. Description: H&E staining of removed bladder to score the degree of inflammation. As for the experimental part:
To 12-week old male SD rats, cyclophosphamide (150 mg/kg) was intraperitoneally administered under isoflurane anesthetization. Immediately after that, rebamipide (1 mM or 10 mM, 300 μL) or vehicle was injected into the bladder, and the rats were held in the supine position for 1 hour. (2) After two days, the bladder was removed, and H&E stained to score the degree of inflammation

In another experiment the test system is MPO. Description: MPO inflammation marker in bladder tissue by ELISA. Conditions: rebamipide group vs CYP group. As for the experimental part: (§1) To 12-week old male SD rats, cyclophosphamide (150 mg/kg) was intraperitoneally administered under isoflurane anesthetization. Immediately after that, rebamipide (1 mM or 10 mM, 300 μL) or vehicle was injected into the bladder, and the rats were held in the supine position for 1 hour. (3) TNFα, IL-6 and IL-1β which are inflammatory cytokines in bladder tissue were measured by RT-PCR, and an inflammation marker, MPO, was measured by ELISA.
For orientation: In an ELISA, binding on a coated surface is turned into a signal by an enzyme label.

The next experiment relates to TNFα. The experiment can be described thus: TNFα in bladder tissue by RT-PCR. The conditions noted are these: rebamipide group vs CYP group. As for the experimental part: as §1
Experiment [2] concerns rat model of chronic cystitis. The experiment can be described thus: Conscious cystometrography in rat model of chronic cystitis (cyclophosphamide). Conditions: 300 μL into the bladder, cyclophosphamide 150 mg/kg i.p., after two days. As for the experimental part:
In addition, experiments were performed for studying effects of the present invention on cystitis using a rat model of chronic cystitis. To 12-week old male SD rats, cyclophosphamide (150 mg/kg) was intraperitoneally administered under isoflurane anesthetization. Immediately after that, rebamipide (1 mM or 10 mM, 300 μL) or vehicle was injected into the bladder, and the rats were held in the supine position for 1 hour. (1) After two days, conscious cystometrography was performed (the saline perfusion flow rate: 0.04 ml/min) was performed.

The test system of the next experiment is IL-6. Description: IL-6 in bladder tissue by RT-PCR. The conditions noted are these: rebamipide group vs CYP group. As to the method: as §1
The subject of the next experiment is IL-1β. The experiment can be described thus: IL-1β in bladder tissue by RT-PCR. Conditions: rebamipide group vs CYP group. As for the experimental part:
as §1

The mark [3] stands for this setting: rebamipide group vs CYP group, after two days.

With `O=C(NC(Cc1cc(=O)[nH]c2ccccc12)C(=O)O)c1ccc(Cl)cc1` (stereo not drawn) [rebamipide, 2-(4-chlorbenzoylamino)-3-(2-quinolone-4-yl)propionic acid], in experiment [1] (setting [3]), the invasive inflammatory cells result is reported as “significantly reduced” and the submucosal edema result is “significantly reduced”. For the same compound, the bladder inflammation result in experiment [1] (rebamipide injected into the bladder, summary) is given as “suppressed”. For the same compound, the “level of MPO in the bladder tissue” value with MPO is listed as “increase was suppressed”. The “level of TNFα in the bladder tissue” value in the experiment with TNFα is given as “increase was suppressed”. The urination interval in experiment [2] (1 mM) is 14.4 ± 2.1 min. In experiment [2] (10 mM), this compound gave a urination interval of 21.1 ± 2.5 min. In addition, in the experiment on IL-6, the “level of IL-6 in the bladder tissue” value is reported as “increase was suppressed”. Moreover, the “level of IL-1β in the bladder tissue” value in the experiment on IL-1β was “increase was suppressed”.

Source of the values: patent publication US9226926B2, “Therapeutic agent for lower urinary tract disease” (N.M.A. Co., Ltd., priority 2013, dated 2016).
